From publication PMC9738591, “N-[1,3-Dialkyl(aryl)-2-oxoimidazolidin-4-ylidene]-aryl(alkyl)sulphonamides as Novel Selective Human Cannabinoid Type 2 Receptor (hCB2R) Ligands; Insights into the Mechanism of Receptor Activation/Deactivation” (Molecules, 2022)
Like-named read-outs stand apart in the source and are kept apart here.

Experiments:
[1] = biological target: T1, human recombinant CB1R (Homo sapiens, UniProt P21554); assay: Competition binding assay, displacement of [3H]-CP-55,940 from membranes of HEK-293 cells overexpressing CB1R; conditions: for inhibition at 10 µM / inhibition at 25 µM: read-out: % Displacement/ Max. Conc. Tested, hCB1R
T1 construct: purchased Perkin-Elmer, Italy; host or cells: HEK-293 cells (membranes)
Experimental: (§1) The binding affinities (Ki values) of the compounds for human recombinant hCB1R and hCB2R were determined as previously described, using SR144528 as a reference compound [30], and are reported in Table 1.
(§2) Compound affinity for CB1R and CB2R was measured as previously reported. […] Competition curves were performed by displacing [^3H]-CP-55 940 with increasing concentrations of compounds (0.1 nM–10 or 25 μM). […] All compounds were tested following the procedure described by the manufacturer (Perkin-Elmer, Italy). Displacement curves were generated by incubating drugs with [^3H]-CP-55 940 for 90 min at 30 °C. Ki values were calculated by applying the Cheng−Prusoff equation to the IC50 values for the displacement of the bound radioligand by increasing concentrations of the test compound. Data represent the mean values of three independent experiments performed in duplicate and are expressed as the average of Ki (µM) ± standard deviation. Data were analyzed using PRISM.9.3 software (GraphPad Software Inc, San Diego, CA, USA).

[2] = biological target: T2, human CB2R (Homo sapiens, UniProt P34972); assay: Competition binding assay, displacement of [3H]-CP-55,940 from membranes of HEK-293 cells overexpressing CB2R; parameters: purchased Perkin-Elmer, Italy; host or cells: HEK-293 cells (membranes); conditions: for inhibition at 25 µM: max conc. tested 25 µM
Experimental: as §1, §2

[3] = biological target: T2, human CB2R; assay: cAMP Hunter assay, effect on NKH-477-induced cAMP levels (agonist mode); type: cell-based; conditions: for Effect on NKH-477-induced cAMP levels (functional behavior): CHO-K1 cells overexpressing human CB2R, compound alone
Experimental: The above-mentioned compounds were tested for their functional activity.
Gi-coupled cAMP modulation was measured following the manufacturer’s protocol (Eurofins, Fremont, CA, USA), as previously reported. Briefly, CHO-K1 cells overexpressing the human CB2R were plated into a 96-well plate (10,000 cells/well) and incubated overnight at 37 °C, 5% CO2. Media was aspirated and replaced with 30 μL of assay buffer. Cells were incubated for 30 min at 37 °C with 15 μL of 3× dose−response solutions of samples prepared in the presence of a cell assay buffer containing 3× of 25 μM NKH-477 solution to stimulate adenylate cyclase and enhance basal cAMP levels. For those compounds not showing a decrease in cAMP levels, the effect upon receptor activation in the presence of the JWH-133 selective agonist was investigated. Cells were pre-incubated with samples (15 min at 37 °C at 6× the final desired concentration), followed by 30 min incubation with the JWH-133 agonist challenge at the EC80 concentration (EC80 = 4 μM, previously determined in separate experiments) in the presence of NKH-477 to stimulate adenylate cyclase and enhance cAMP levels. Cell lysis and cAMP detection were performed as per the manufacturer’s protocol. Luminescence measurements were performed using a GloMax Multi Detection System (Promega, Italy). Data are reported as the means ± SEM of three independent experiments conducted in triplicate and were normalized considering the NKH-477 stimulus alone as 100% of the response. Data were analyzed using PRISM.9.3 software (GraphPad Software Inc, San Diego, CA, USA).
Figure 7 Concentration-response curves of compounds in the cAMP Hunter assay. Curves show the effect of increasing concentrations of compounds on NKH-477-induced cAMP levels in stable CHO cells expressing the human CB2. Data are reported as the means ± SEM of three independent experiments conducted in triplicate, normalized to the maximal and minimal responses.

[4] = Maximum concentration reached in the functional assay buffer, by UV absorption and HPLC; type: physicochemical; conditions: measured by UV absorption and HPLC
Experimental: (§3) Only a small displacement was observed and only at the highest concentration (Figure 8). We reasoned that the discrepancy with the predictions was mainly due to the chemical–physical features of the molecule and that the lack of antagonism was caused by issues related to compound solubility in the buffer used for the assay. Indeed, the maximum concentration of 12b that could be reached in the buffer solution used for the functional assay, measured by UV absorption as well as by HPLC, was 2.3 µM.

[5] = biological target: T2, human CB2R; assay: cAMP Hunter assay in the presence of JWH-133 agonist challenge (antagonist mode); type: cell-based; conditions: for Antagonism of JWH-133-induced inhibition of NKH-477-induced cAMP formation: JWH-133 4 µM (EC80) agonist challenge
Experimental: as §3

[6] = [3H]-CP-55,940 displacement, HEK-293 membranes, 90 min at 30 °C, Cheng-Prusoff, read-out: Ki hCB1R (µM ± S.E.)
[7] = [3H]-CP-55,940 displacement, HEK-293 membranes, 90 min at 30 °C, Cheng-Prusoff, read-out: Ki hCB2R (µM ± S.E.)
[8] = read-out: % Displacement/ Max Conc. Tested, hCB2R (converted)
[9] = stable CHO cells expressing the human CB2, read-out: EC50, reduction of NKH-477-induced cAMP levels
[10] = max conc. tested 10 µM, read-out: % Displacement/ Max Conc. Tested, hCB2R (converted)

T1 sequence (P21554 whole entry): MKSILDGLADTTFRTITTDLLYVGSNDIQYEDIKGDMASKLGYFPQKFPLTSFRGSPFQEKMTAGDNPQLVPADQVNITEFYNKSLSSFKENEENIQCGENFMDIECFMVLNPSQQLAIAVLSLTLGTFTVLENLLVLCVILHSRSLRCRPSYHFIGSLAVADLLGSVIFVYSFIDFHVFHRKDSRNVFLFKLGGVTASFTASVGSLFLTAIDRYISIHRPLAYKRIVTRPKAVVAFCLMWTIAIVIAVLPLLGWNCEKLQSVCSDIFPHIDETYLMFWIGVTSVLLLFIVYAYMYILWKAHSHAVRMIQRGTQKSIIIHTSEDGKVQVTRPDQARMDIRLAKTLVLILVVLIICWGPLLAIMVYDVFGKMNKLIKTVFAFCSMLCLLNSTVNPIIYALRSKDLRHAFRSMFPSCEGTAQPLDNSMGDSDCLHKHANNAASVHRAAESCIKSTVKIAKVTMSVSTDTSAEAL
T2 sequence (P34972 whole entry): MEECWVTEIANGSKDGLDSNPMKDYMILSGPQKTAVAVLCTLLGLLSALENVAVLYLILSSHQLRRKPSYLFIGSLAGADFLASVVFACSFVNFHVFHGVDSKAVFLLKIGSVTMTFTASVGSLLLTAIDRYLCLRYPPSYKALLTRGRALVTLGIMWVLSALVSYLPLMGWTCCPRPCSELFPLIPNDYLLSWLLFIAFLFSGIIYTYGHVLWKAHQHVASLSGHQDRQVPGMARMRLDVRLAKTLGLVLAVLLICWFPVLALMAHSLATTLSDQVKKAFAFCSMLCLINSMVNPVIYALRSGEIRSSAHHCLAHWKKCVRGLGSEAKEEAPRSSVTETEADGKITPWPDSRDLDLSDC

| SMILES | melting point | Ki [1, 6] | inhibition at 10 µM [1] | Ki [2, 7] | inhibition at 25 µM [2, 8] | Effect on NKH-477-induced cAMP levels (functional behavior) [3] | EC50 [3, 9] | inhibition at 10 µM [2, 10] | Ki [1] | Ki [2] | inhibition at 10 µM ([2]; read-out: % Displacement/ Max Conc. Tested, hCB2R) | EC50 [3] | inhibition at 25 µM [1] | Maximum concentration that could be reached in the buffer solution used for the functional assay [4] | Antagonism of JWH-133-induced inhibition of NKH-477-induced cAMP formation [5] | EC80 concentration of agonist challenge ([5]; previously determined in separate experiments) |
| --- | --- | --- | --- | --- | --- | --- | --- | --- | --- | --- | --- | --- | --- | --- | --- | --- |
| CC(C)(C)N1CC(=NS(=O)(=O)c2ccccc2)N(CC2CC2)C1=O [Compound 10b, N-[1-tert-Butyl-3-cyclopropylmethyl-2-oxoimidazolidin-4-ylidene]benzenesulfonamide] | 114.5 to 115 °C | > 10 µM | 10.5% | 1.67 ± 0.16 µM | 73% | typical agonist behavior | 1260 nM | – | – | – | – | – | – | – | – | – |
| CC(C)(C)N1CC(=NS(=O)(=O)c2cccc(Br)c2)N(CC2CC2)C1=O [Compound 10e, 3-Bromo-N-[1-tert-Butyl-3-cyclopropylmethyl-2-oxoimidazolidin-4-ylidene]benzenesulfonamide] | 114 to 115 °C | > 10 µM | 10.8% | 0.34 ± 0.08 µM | – | typical agonist behavior | 264 nM | 83.5% | – | – | – | – | – | – | – | – |
| CC(C)(C)N1CC(=NS(=O)(=O)c2cccc3ccccc23)N(CC2CC2)C1=O [Compound 10g, N-[1-tert-Butyl-3-cyclopropylmethyl-2-oxoimidazolidin-4-ylidene]naphthalene-1-sulfonamide] | – | – | 24.9% | – | – | typical agonist behavior | – | – | > 10 µM | 0.06 ± 0.01 µM | 95.7% | 72 nM | – | – | – | – |
| CS(=O)(=O)N=C1CN(C23CC4CC(CC(C4)C2)C3)C(=O)N1CC1CC1 [Compound 12a, N-[1-Adamant-1-yl-3-cyclopropylmethyl-2-oxoimidazolidin-4-ylidene]methanesulfonamide] | 199.5 to 200 °C | 0.21 ± 0.004 µM | – | 0.28 ± 0.05 µM | 76.5% | typical agonist behavior | 2140 nM | – | – | – | – | – | 76.5% | – | – | – |
| O=C1N(CC2CC2)C(=NS(=O)(=O)c2ccccc2)CN1C12CC3CC(CC(C3)C1)C2 [Compound 12b, N-[1-Adamant-1-yl-3-cyclopropylmethyl-2-oxoimidazolidin-4-ylidene]benzenesulfonamide] | 198 to 198.5 °C | > 10 µM | – | 0.26 ± 0.03 µM | 84.5% | did not alter the level of cAMP | – | – | – | – | – | – | 29.5% | 2.3 µM | did not antagonize the agonist challenge | – |
| O=C1N(CC2CC2)C(=NS(=O)(=O)c2cccc(Br)c2)CN1C12CC3CC(CC(C3)C1)C2 [Compound 12e, N-[1-Adamant-1-yl-3-cyclopropylmethyl-2-oxoimidazolidin-4-ylidene]-3-bromo-1-benzenesulfonamide] | 138 to 138.5 °C | > 10 µM | 5.07% | 0.16 ± 0.03 µM | – | did not alter the level of cAMP | – | 71.4% | – | – | – | – | – | – | fully antagonize | – |
| CCCC(C)(C)c1ccc2c(c1)OC(C)(C)[C@@H]1CC=C(C)C[C@@H]21 [JWH-133, reference compound] | – | – | – | – | – | – | – | – | – | – | – | – | – | – | – | 4 µM |
